According to patent US20240197709A1, “POTENTIATING THE TUMOR-SELECTIVE EFFECTS OF NQO1-BIOACTIVATABLE AGENT BY USE OF CMET INHIBITOR” (The Trustees of Indiana University, priority 2022, published 2024):

Key:
Capan2 shMET = assay: long-term survival (DNA assay), Capan2 shSCR versus shMET; format: cell-based; conditions: DIC 50 μM
Description: FIG. 1-1R. Graph showing relative long-term survival in isogenic Capan2 shSCR versus shMET cell lines using the DNA assay.
Dicoumarol (DIC) is a well-established NQO1 inhibitor (Asher, et al., Biochemistry 2006, 45(20), 6372-8; Motea, et al., Clin Cancer Res 2019, 25(8), 2601-2609; Huang, et al., Cancer Cell 2016, 30(6), 940-952).

[1] = system: cellular hydrogen peroxide (H2O2) levels in A549 cells; assay: ROS-Glo H2O2 Assay; format: cell-based; conditions: A549, DIC 50 μM
Protocol: FIG. 2-1A. […] Growth media was then replaced with fresh media containing β-lap (3 μM) alone, criz alone (1 μM) or combination±DIC (50 μM) and collected at 15 and 120 min to measure H2O2 production using the ROS-Glo™ H2O2 Assay from Promega (Madison, WI). The assay was performed in three biological replicates.
Next, we sought to investigate the mechanistic role of cMET in promoting resistance to ROS-induced DNA lesions caused by the futile redox cycling of β-lap with NQO1. […] In response to H2O2 stimulation, cMET can translocate into the nucleus where it interacts with PARP1 for activation to enhance the repair of ROS-induced DNA damage. […] Next we performed PARP1 immunoprecipitation studies to determine whether it associates with activated cMET in the nucleus following treatment with β-lap at increasing doses.

[2] = system: A549 NSCLC cell migration and invasion; conditions: A549, crizotinib+β-lap+DIC
Protocol: FIG. 4A. Representative images of A549 NSCLC cell migration at indicated treatment conditions at 16 h post-treatment using a Boyden chamber migration assay: 2 h pre-treatment with criz followed by additional 2 h with criz±β-lap.
FIG. 4B. Bar graph showing quantification of cell migration expressed as a percent of control (vehicle).
FIG. 4C. Representative images of A549 NSCLC cell invasion at indicated treatment conditions at 16 h post-treatment using a matrigel-coated Boyden chamber invasion assay: 2 h pre-treatment with criz followed by additional 2 h with criz±β-lap.
FIG. 4D. Bar graph showing quantification of cell invasion expressed as a percent of control (vehicle).

[3] = in vivo; cited from earlier work
[4] = system: IMR90 lung fibroblast cell line; assay: long-term cell survival assay, IMR90; format: cell-based, human; conditions: IMR90, no NQO1, high CAT; criz ± sub-lethal β-lap (3 μM)
Protocol: FIG. 1D. […] LC50 values were calculated from long-term cell survival graphs using GraphPad PRISM; ND denotes Not Determined even at the highest concentration presented. All error bars represent the mean±SEM. **** p<0.0001, *** p<0.001, ** p<0.01, *p<0.05.

[5] = system: Capan2-mCherry microtumor; assay: 3D spheroid co-culture, tumor cells; format: cell-based; conditions: 3D co-culture with NIH3T3-GFP; crizotinib 2 μM, β-lap 2 μM or 4 μM
Protocol: FIG. 5D. Top Inset: Representative brightfield, green (NIH3T3-GFP), red (Capan2-mCherry), and merged images of 3D spheroid co-culture of Capan2-mCherry (cancer cells) and NIH3T3-GFP (normal cells). 3D co-cultures were exposed to specified treatment conditions and imaged at indicated times to monitor drug response. Scale bar=250 μm. Untreated NIH3T3-GFP 3D spheroid culture by itself (imaged at indicated times) was added for reference.
FIG. 5E. Bar graph of Capan2-mCherry 3D spheroid microtumor growth at specified treatment conditions over time. Asterisk (*) indicates synergistic response in the combination treatment compared to the corresponding individual treatments alone.
Next, we investigated the tumor-selectivity and efficacy of our combination treatment strategy using 3D co-culture spheroids of Capan2 PDAC (permanently labelled with mCherry) and NIH3T3 mouse embryonic fibroblast cells (permanently labelled with GFP) to mimic physiological cell-cell and cell-environment interactions during treatment. […] These are consistent with patient data comparing associated normal tissues versus tumors in pancreas (FIGS. 1-1B, 1-1G) and lungs (FIGS. 1A, 1-1B, 1-1H). Using confocal fluorescent microscopy, we noted that NIH3T3-GFP fibroblast cells were surrounding the Capan2-mCherry PDAC cells in the 3D spheroid co-culture (FIG. 5D).

Row | SMILES | effect of added DIC on β-lap sensitivity (Capan2 shMET) | H2O2 formation, DIC added to β-lap+criz [1] | migration and invasion, DIC added to the combination treatment [2] | MTD [3] | long-term cell survival (sensitivity) [4] | Capan2-mCherry microtumor growth [5]
1 | O=c1oc2ccccc2c(O)c1Cc1c(O)c2ccccc2oc1=O [DIC, Dicoumarol] | rescued | prevented H2O2 formation | restored the ability of A549 to migrate and invade |  |  | 
2 | C[C@@H](Oc1cc(-c2cnn(C3CCNCC3)c2)cnc1N)c1c(Cl)ccc(F)c1Cl [crizotinib] |  |  |  | 250 mg twice daily | remained resistant | very little effect on tumor growth
